Measured values reported in ChEMBL document CHEMBL1201862, “PubChem BioAssay data set” (2004).
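In this assay, cells in 96-well plates receive the compound at five concentrations for 48 hours. Endpoints are linearly interpolated between the surrounding concentrations. GI50 marks 50% less growth.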 Calls of active or inactive are those of the source. Cut-off read from the data, not from the text of the source: active = GI50 up to about 1.1 µM and inactive = higher.

What was measured:
Assay in all cases: DTP human tumour cell line panel, 48 h
[1] = system: OVCAR-8
[2] = system: HL-60
[3] = system: HOP-92
[4] = system: SK-MEL-5
[5] = system: EKVX
[6] = system: SW-620
[7] = system: TK-10
[8] = system: LOX IMVI
[9] = system: NCI-H23
[10] = system: M14
[11] = system: IGROV-1
[12] = system: HCC 2998
[13] = system: ACHN
[14] = system: MOLT-4
[15] = system: NCI-H460
[16] = system: RXF 393
[17] = system: SK-MEL-2
[18] = system: COLO 205
[19] = system: PC-3
[20] = system: Hs-578T

Measured: GI50

C#CCN(Cc1ccc2nc(-c3ccccc3)c(Cl)nc2c1)c1cc(OC)c(OC)c(OC)c1
inactive: [1] > 100 µM | [2] 57.9 µM | [3] > 100 µM | [4] 30.3 µM | [5] > 100 µM | [6] 15 µM | [7] > 100 µM | [8] 14.8 µM | [9] > 100 µM | [10] > 100 µM | [11] > 100 µM | [12] > 100 µM | [13] 58.2 µM | [14] 83.6 µM | [15] 46.1 µM | [16] 37.1 µM | [17] > 100 µM | [18] 57.1 µM

COc1ccc(-c2c(C#N)c(O)n(C3OC(CO)C(O)C(O)C3O)c(=S)c2C#N)cc1 (stereo not given)
inactive: [1] > 100 µM | [2] > 100 µM | [4] > 100 µM | [6] > 100 µM | [7] > 100 µM | [19] > 100 µM | [8] > 100 µM | [9] > 100 µM | [10] > 100 µM | [11] > 100 µM | [12] > 100 µM | [13] > 100 µM | [14] > 100 µM | [15] > 100 µM | [16] > 100 µM | [17] > 100 µM

COC(=O)[C@@H](NS(=O)(=O)CC12CCC(CC1)C2(C)C)C(C)(C)C
inactive: [1] > 100 µM | [2] > 100 µM | [3] > 100 µM | [4] > 100 µM | [5] > 100 µM | [6] > 100 µM | [7] > 100 µM | [20] > 100 µM | [8] > 100 µM | [9] > 100 µM | [10] > 100 µM | [11] > 100 µM | [12] > 100 µM | [13] > 100 µM | [14] 4.85 µM | [15] > 100 µM | [16] 44.4 µM | [17] > 100 µM | [18] > 100 µM

COC[n+]1cc2cc(OC)c(OC)cc2c2ccc3cc(OC)c(OC)cc3c21
inactive: [1] > 100 µM | [2] > 100 µM | [3] > 100 µM | [4] > 100 µM | [5] > 100 µM | [6] > 100 µM | [7] > 100 µM | [8] > 100 µM | [9] > 100 µM | [10] > 100 µM | [11] > 100 µM | [12] > 100 µM | [13] > 100 µM | [14] > 100 µM | [15] > 100 µM | [16] > 100 µM | [17] > 100 µM | [18] > 100 µM

N#Cc1cccnc1Cl
inactive: [1] > 100 µM | [2] > 100 µM | [3] > 100 µM | [4] > 100 µM | [5] > 100 µM | [6] > 100 µM | [7] > 100 µM | [8] > 100 µM | [9] > 100 µM | [10] > 100 µM | [11] > 100 µM | [12] > 100 µM | [13] > 100 µM | [14] > 100 µM | [15] > 100 µM | [16] > 100 µM | [17] > 100 µM | [18] > 100 µM

O=C(N[C@@H]1C=CCC[C@@H]1c1ccccc1)OCc1ccccc1
inactive: [1] 20.1 µM | [2] 11.6 µM | [3] 16.5 µM | [4] 17.9 µM | [5] 23.2 µM | [6] 22.9 µM | [7] 15.3 µM | [8] 15.2 µM | [9] 22.8 µM | [10] 17.9 µM | [11] 24.2 µM | [12] 20.6 µM | [13] 24 µM | [14] 13.1 µM | [15] 17.9 µM | [16] 20.3 µM | [17] 16.3 µM | [18] 18.5 µM

COc1c(Br)cc(Br)c(OC)c1-c1[nH]c(Br)c(Br)c1Br
inactive: [1] 8.75 µM | [2] 6.76 µM | [3] 1.82 µM | [4] 6.55 µM | [5] 6.93 µM | [6] 7.11 µM | [7] 11.4 µM | [8] 11.7 µM | [9] 2.98 µM | [10] 7.16 µM | [11] 5.71 µM | [12] 6.76 µM | [13] 4.78 µM | [14] 4.53 µM | [15] 9.48 µM | [16] 1.36 µM | [17] 3.01 µM | [18] 10.4 µM

O=C(CCc1ccccc1)On1nnc2ccccc2c1=O
inactive: [1] > 100 µM | [2] > 100 µM | [3] > 100 µM | [4] > 100 µM | [5] > 100 µM | [6] > 100 µM | [7] 26.5 µM | [8] > 100 µM | [9] > 100 µM | [10] > 100 µM | [11] > 100 µM | [12] > 100 µM | [13] > 100 µM | [14] > 100 µM | [15] > 100 µM | [16] > 100 µM | [17] > 100 µM | [18] > 100 µM

C=C1[C@@H](OC(C)=O)[C@H]2[C@@H](OC(C)=O)[C@@](C)(OC(C)=O)C[C@]2(OC(C)=O)C(=O)[C@@H](C)/C=C/C(C)(C)C(=O)C[C@H]1OC(C)=O
inactive: [1] > 100 µM | [3] 79.3 µM | [4] > 100 µM | [5] 83.9 µM | [7] > 100 µM | [19] > 100 µM | [8] > 100 µM | [9] > 100 µM | [10] > 100 µM | [11] > 100 µM | [12] > 100 µM | [13] > 100 µM | [14] > 100 µM | [16] > 100 µM | [17] > 100 µM | [18] 72.3 µM

CCOc1ccc(-c2oc(/C=N/NS(=O)(=O)c3ccc(C)cc3)c([N+](=O)[O-])c2-c2ccc(OCC)cc2)cc1
inactive: [1] 15.6 µM | [2] 4.03 µM | [3] 8.85 µM | [4] 6.76 µM | [5] 26.1 µM | [6] 2.61 µM | [7] 22 µM | [8] 3.46 µM | [9] 13.5 µM | [10] 12.4 µM | [11] 14.1 µM | [12] 14.4 µM | [13] 10.9 µM | [14] 2.65 µM | [15] 13.2 µM | [16] 12.3 µM | [17] 19.9 µM | [18] 17.5 µM

COc1ccc(OC)c(N2CC(N)C2=O)c1 (stereo not given)
inactive: [1] > 100 µM | [2] > 100 µM | [3] > 100 µM | [4] > 100 µM | [5] > 100 µM | [6] > 100 µM | [7] > 100 µM | [8] > 100 µM | [9] > 100 µM | [10] > 100 µM | [11] > 100 µM | [12] > 100 µM | [13] > 100 µM | [14] > 100 µM | [15] > 100 µM | [16] > 100 µM | [17] > 100 µM | [18] > 100 µM
